Results taken from US20250262199A1, “TREATMENT OF AUTOIMMUNE SKIN DISEASE” (ASLAN PHARMACEUTICALS PTE LTD, priority 2022, published 2025).

What was measured:
Type in all cases: in vivo
[1] = system: vitiligo mouse model (transgenic Krt14-KitL* (SCF) mice); assay: Vitiligo scoring in vitiligo mouse model; conditions: oral gavage, 6 weeks (30 treatment days), FIG. 1
PMEL T cells = assay: Flow cytometry of PMEL T cell counts in tissues of vitiligo mouse model
[2] = system: Alopecia areata mouse model (C3H/HeJ mice); assay: Hair coverage in Alopecia areata mouse model (C3H/HeJ skin graft); conditions: 150 or 300 mg/kg/day once daily oral gavage, week 8 time point (10 weeks after engraftment), vs vehicle; interim data; FIG. 3
Description: The C3H/HeJ mouse strain is known to spontaneously develop alopecia (AA) at a low frequency over a prolonged time frame. Transplantation of AA-affected skin from a C3H/HeJ mouse to unaffected C3H/HeJ recipients will induce the development of AA in nearly 100% of recipients over 4-8 weeks. Accordingly, to produce the AA mouse model, AA-affected C3H/HeJ skin was grafted onto groups of unaffected C3H/HeJ mice. The following treatment groups (n=10 per treatment group) were tested: • 1. Vehicle 0.5% methylcellulose (negative control) • 2. 150 mg/kg/day farudostat • 3. 300 mg/kg/day farudostat Treatments were administered once daily by oral gavage starting 2 weeks after engraftment and concluded after 12 weeks (84 days) of treatment. Photographs were taken at baseline, and every 4 weeks until the end of study Ventral hair growth was scored based on the photographs. Any mouse that had >98% hair coverage was classified as ‘no hair loss’.

## COc1cccc(-c2cc(F)c(Nc3ncccc3C(=O)O)c(F)c2)c1 [farudostat, 2-(3,5-difluoro-3′-methoxybiphenyl-4-ylamino) nicotinic acid]
[1]; 75 mg/kg/day, vs vehicle
  final mean vitiligo score: improvement in vitiligo score
[1]; 150 mg/kg/day, vs vehicle and 75 mg/kg/day group
  final mean vitiligo score: greater improvement in vitiligo score compared to the 75 mg/kg/day group
PMEL T cells; 150 mg/kg/day, oral gavage, FIGS. 2A to 2D
  mean PMEL count, 150 mg/kg/day compared to 75 mg/kg/day: greater reduction in mean PMEL count compared to 75 mg/kg/day
PMEL T cells; farudostat 75 and 150 mg/kg/day, oral gavage, end of experiment, FIG. 2B
  mean PMEL T cell count, dermis: reduction in mean Pmel T cell count
PMEL T cells; farudostat 75 and 150 mg/kg/day, oral gavage, end of experiment, FIG. 2C
  mean PMEL T cell count, epidermis: reduction in mean Pmel T cell count
PMEL T cells; spleen, compared with anti-IFNγ positive control, FIG. 2D
  mean PMEL count, spleen: reduction in mean PMEL count in the spleen that was even greater than that observed for anti-IFNγ
[2]
  mean % hair coverage: slight improvement in % hair coverage
